Where two headings read alike, the source gives them in different places.
Assays:
[1] = tested on: MDAMB231; test: Soft Agar colony-formation Assay, MDAMB231; format: cell-based; settings: Homo sapiens, MDA-MB-231, 168 h; MDAMB231 breast cell line, 1 week
Description: (§1) The Soft Agar Colony-formation Assay is an anchorage-independent growth assay in soft agar, which is one of the most stringent assays for detecting malignant transformation of cells. For this assay, malignant cells are cultured with appropriate controls in soft agar medium for 1-2 weeks. Following this incubation period, formed colonies can either be analyzed morphologically using cell stain and quantifying the number of colonies formed.
(§2) Briefly, for Soft Agar Assay a mixture of 50 ul of 2× medium (taken appropriately as per cell line) and 50 ul of 1.2% Bacto Agar were plated on to each well of 96 well micro titer assay plate. 10 ul of cells (Of specific plating efficiency pre-standardized for respective cell line) were mixed with 20 ul of 2× medium and 30 ul of 0.8% of Bacto Agar and 1.6 ul of drug (of appropriate concentration) in a vial and transferred to the solidified pre-layers of the assay plates. The cells were then allowed to grow and form colonies at 37° C. and 5% CO2 for 1 week. An intermittent feeding with 50 ul of appropriate 2× medium was performed after 3 days of experimental set up. 16 ul of Alamar Blue (1.5 mg/ml) was then added to all the wells to quantify the developed colonies. The plates were incubated for 24 hrs at 37° C. Absorbance was then measured at 630 nm. XY graph of log Percent viability was then plotted against log drug concentration. IC50 (Drug concentration inhibiting the 50% of cell population) was then calculated by regression analysis.
(§3) Following Plating Efficiencies Were Standardized for Soft Agar Assay: […]

[2] = tested on: normal lymphocytes
Description: (§10) In order to test the activity of cytotoxic drugs towards normal cells, we performed MTT
(§11) Assay for these cytotoxic drugs using lymphocytes obtained from a healthy donor.
(§12) Briefly, diluted defibrinated fresh blood was overlaid gradually on HiSeP LSM1077 and centrifuged at low speed for 30 mins. The lymphocyte layer (the buffy coat) (Fig) was carefully removed in a new collection tube. The buffy coat was given another wash, by the diluent buffer, to reduce the platelet contamination. The supernatant was discarded, and the pellet was resuspended in diluent buffer. The viability was checked by Haemocytometer. Cells with Viability and Purity of 95% and more were considered for the assay. MTT assay was performed with these cells as described above with plating efficiency of 0.7 million/ml.

[3] = tested on: spheres of PC3; test: In vitro sphere-forming assay, PC3 in Prostosphere media; format: cell-based; settings: 2000 cells/well, n = 6 ± S.D
From the text: (§4) Sphere assay measures the ability of Cancer Stein Cells to form spheres in specially designed serum-free medium. We have used this assay to measure the killing efficiency of the test compounds as compared to the standard chemotherapeutic drug, Cisplatin.
(§5) Materials and Reagents:50× B27 Supplement (Life Technologies, Invitrogen, Catalog No.: 17502-044), Fibroblast Growth Factor (FGF) (Sigma-Aldrich, Catlog No.: F029125), Epidermal Growth Factor (EGF) (Sigma-Aldrich, Catlog No.: E9644), Insulin (Sigma, Catlog No.: 19278), Dulbecco's Modified Eagle Medium/F12 (HiMedia Catlog No.: AL139-6), Dulbecco's Phosphate Buffered Saline (HiMedia Catlog No.: TL1006), Trypan Blue (TC193), Prostate Epithelial Media (LONZA, Catlog No.: CC-3166) MEGM (LONZA, Catlog No.: CC-3051), Heparin (Sigma, Catlog No.: H3393), Penstrep (HiMedia, Catlog No.: A002)
Prostosphere Media Preparation (For 100 mL):1 g methyl cellulose autoclaved with magnetic stirrer, Plain media (Prostate Epithelial Basal Medium), 100 mL added and dissolved, under magnetic stirring. After complete dissolution, add: Insulin-40 μL, B27-2 mL, EGF-80 μL, Penstrep-1 ml.
(§6) Procedure: —The cells were trypsinised and made into single-cell suspension by passing through cell strainers ([…], respectively), The cells were diluted at the concentration of 2000 cells/100 μL and suspended in either Mammosphere (for breast cell lines) or Prostosphere (for prostate cell lines). 100 μL of this suspension was added into each well of 96-well suspension plates and incubated at 37° C., 5% CO2 for 24 hrs. Appropriate concentrations of the drugs (2 μL) were added into respective wells with 100 μL of stem cell culture medium. Plates were incubated at 37° C., 5% CO2 for 72 hrs. After incubation 2.5 μL of the respective drug concentration and 50 μL of stem cell culture medium were added into each well and the plates were further incubated at 37° C., 5% CO2 for 72 hrs. 3 μL of the respective drug concentration was added with 50 μL of stem cell culture medium again after incubation and plates were incubated again for 72 hrs at 37° C., 5% CO2. Number of primary spheres formed for each concentration was counted. A comparative graph of number of spheres formed was plotted against the concentration and the growth curve was compared with the positive control.

[4] = tested on: spheres of MDAMB231; test: In vitro sphere-forming assay, MDAMB231 in Mammosphere media; format: cell-based; settings: 2000 cells/well, n = 6 ± S.D
From the text: as §4, §5
Mammosphere Media Preparation (For 100 mL): 1 g methyl cellulose autoclaved with magnetic stirrer Plain media (MEBM), 100 mL added and dissolved under magnetic stirring. After complete dissolution, add: FGF-80 μL, EGF-40 μL, Penstrep-1 mL, Heparin-400 μL.
as §6

[5] = tested on: PC3; test: Soft Agar colony-formation Assay, PC3; format: cell-based; settings: Homo sapiens, PC-3, 168 h; PC3 prostate cell line, 1 week
Description: as §1, §2, §3

[6] = tested on: MDAMB231; test: MTT antiproliferative assay, MDAMB231; format: cell-based; settings: Homo sapiens, MDA-MB-231; MDAMB231 breast cell line, 48 hrs drug incubation
Description: (§7) MTT assay is a simple and sensitive assay where, metabolic reducing activity of the cells is measured. The increase of this activity in time is taken as a parameter of cell growth. If treatment with a drug impairs this increase, the action may be a consequence of growth inhibition, cell killing or both. The compounds of Formula V to XIV of the present invention, standard cytotoxic drug (e.g. Cisplatin) were tested at different concentrations (1, 0.1, 0.01, 0.001 mM) using breast and prostate cancer cell lines. All cell lines were cultured in a 37° C. incubator with a 5% CO2 environment. Compounds were dissolved in DMSO with a concentration of 0.1M (stock solution). Cells were seeded into 96-well plates at suitable plating efficiency.
(§8) Following Plating Efficiencies were Standardized for MTT Assay:
(§9) The MTT procedure followed was as follows. Briefly, the cells were plated in 96 well plate as per predetermined plating efficiency (Table 1) The plates were then incubated for 24 hrs in 5% CO2 atmosphere at 37° C. Appropriate concentrations of the drugs were then added to the plate and further incubation was carried out for 48 hrs (in 5% CO2 atmosphere at 37° C.). The assay plate was then centrifuged twice at 3000 rpm for 3 mins and supernatant was then discarded. 100 ul of MTT solution (0.5 mg/ml) was then added to each well of the plate and it was further incubated for 4 hrs (in 5% CO2 atmosphere at 37° C.) Following 4 hr incubation, the plate was then centrifuged twice, and supernatant was aspirated off very carefully. 200 ul of DMSO was then added to each well to solubilize. MTT crystals and mixed well by shaking the plate. XY graph of log Percent viability was then plotted against log drug concentration. […] (Drug concentration inhibiting the 50% of cell population) was then calculated by regression analysis.

[7] = tested on: PC3; test: MTT antiproliferative assay, PC3; format: cell-based; settings: Homo sapiens, PC-3; PC3 prostate cell line, 48 hrs drug incubation
Description: as §7, §8, §9

[8] = tested on: normal lymphocytes; test: Normal cell assay (MTT) on lymphocytes from a healthy donor
Description: as §10, §11, §12

[9] = tested on: DU145; test: MTT antiproliferative assay, DU145; format: cell-based; settings: Homo sapiens, DU-145; DU145 prostate cell line, 48 hrs drug incubation
Description: as §7, §8, §9

[10] = tested on: MCF7; test: MTT antiproliferative assay, MCF7; format: cell-based; settings: Homo sapiens, MCF7; MCF-7 breast cell line, 48 hrs drug incubation
Description: as §7, §8, §9

Compound	IC50 [1] [µM]	activity on normal lymphocytes [2]	3D sphere count of PC3 ([3]; drug conc 0.025 uM)	3D sphere count of PC3 ([3]; drug conc 0.25 uM)	3D sphere count of PC3 ([3]; drug conc 2.5 uM)	3D sphere count of PC3 ([3]; drug conc 25 uM)	3D sphere count of PC3 ([3]; drug conc 250 uM)	3D sphere count of MDAMB231 ([4]; drug conc 0.025 uM)	3D sphere count of MDAMB231 ([4]; drug conc 0.25 uM)	3D sphere count of MDAMB231 ([4]; drug conc 2.5 uM)	3D sphere count of MDAMB231 ([4]; drug conc 25 uM)	3D sphere count of MDAMB231 ([4]; drug conc 250 uM)	IC50 [5] [µM]	IC50 [6] [µM]	IC50 [7] [µM]	activity on normal lymphocytes [8]	IC50 [9] [µM]	IC50 [10] [µM]
CO[C@H]1[C@H](OC)COC(Oc2ccc(-c3ccc4c(c3)OCO4)c3ccccc23)[C@@H]1O (stereo partly drawn) [Formula V, (3R,4R,5R)-2-(4-(benzo[d][1,3]dioxol-5-yl)naphthalen-1-yloxy)-4,5-dimethoxy-tetrahydro-2H-pyran-3-ol]	3.45	does not show activity	50(±5)	40(±5)	36(±3)	21(±4)	0(±0)	40(±3)	24(±3)	12(±1)	7(±2)	0(±0)	10.6	4.61	6.19	–	–	–
COc1cc2c(OC(=O)c3cccn3C)c3c(c(-c4ccc5c(c4)OCO5)c2cc1OC)C(=O)OC3 [Formula VII, 9-(benzo[d][1,3]dioxol-5-yl)-6,7-dimethoxy-1-oxo-1,3-dihydronaphtho[2,3-c]furan-4-yl 1-methyl-1H-pyrrole-2-carboxylate]	7.91	–	64(±8)	31(±5)	23(±3)	9(±2)	0(±0)	47(±4)	46(±7)	40(±7)	40(±3)	0(±0)	0.36	2.04	6.32	does not show activity	3.57	2.78
COc1cc2c(OC(=O)C(c3ccccc3)C3CCCC3)c3c(c(-c4ccc5c(c4)OCO5)c2cc1OC)C(=O)OC3 (stereo not shown) [Formula VIII, 9-(benzo[d][1,3]dioxol-5-yl)-6,7-dimethoxy-1-oxo-1,3-dihydronaphtho[2,3-c]furan-4-yl 2-cyclopentyl-2-phenylacetate]	1.32	–	29(±3)	24(±3)	13(±3)	8(±2)	0(±0)	36(±3)	29(±4)	13(±2)	8(±2)	0(±0)	1.96	3.14	3.91	does not show activity	4.28	1.05
